# Source: paper PMC5557808 (Nature Communications, 2017)
# Where a SMILES comes first, the peptide text is derived from it. [ ]: non-standard residue; d: D form. The star is where a group is joined. X1 = CC[N+](CC)(CC(=O)Nc1c(C)cccc1C)Cc1cccc(C(=O)*)c1; Aha = [N-]=[N+]=NCC[C@H](N)C(=O)O
# Molecular target: T1, MMP-8 (Homo sapiens, UniProt P22894)
# T1 construct: purchased EMD Millipore Corporation (Billerica, MA)
# Experiment: MMP-8 cleavage of soluble PCL conjugates (HPLC decrease of main peak)
# Format: biochemical
# Conditions: 900 ng/mL MMP-8, 60 min; p < 0.001, t-test
# Protocol: Pro-MMPs (e.g., MMP-8, MMP-1, or MMP-9; used at 0.1 mg/mL and >100.0 mU/mg based on the manufacturer’s information) were activated with p-aminophenylmercuric acetate (APMA) (8). For that, a 10 mM stock solution of APMA was freshly prepared in 0.1 M NaOH and a 10:1 (v/v) ratio of the respective proenzyme and the APMA solution (MMP:APMA) was incubated for 3 h at 37 °C. The activity was confirmed using the MMP-8 detection kit (QuickZyme Biosciences, Leiden, the Netherlands). A stock solution (90 µg/mL) of the activated MMP was prepared (used for cleavage studies on the PCL or the fully assembled microparticle-PCL-tastant setup (sensor), in MMP-8 buffer (200 mM NaCl, 50 mM Tris-HCl, 5 mM CaCl2, 1 µM ZnCl2, 0.05% Brij 35 at pH 6.8–7.0). All MMP experiments are described in detail in the Supplementary Methods. […]
# in water ( v/v)) and eluent B (0.1 % TFA in 2:3 water-acetonitrile (v/v)) and a gradient from 33 to 80% elu ent B within 30 minutes. UV absorption was r ead at λ = 280 nm or 220 nm. After freezing the samples at -80 °C, fr eeze- drying was performed on a Christ Alpha 1 -4 de vi ce (Martin Christ Gefriertrocknungs anlagen, Osterode am Harz, G e r ma n y) at a desublimers ’ te mperature of - 60 ° C, pressure of 1.030 mbar and processing temperature of 19 °C.
# Pro-MMPs (e. g. MMP -8, MMP -1 or MMP-9; adapted to 0.1 mg/mL and > 100.0 mU/mg based on manufacturer information and when appropriate) were activated with APMA 8. For that, a 10 mM stock solution of APMA in 0.1 M NaOH was freshly prepared and a 10:1 (v/v) ratio of the r especti ve proenzyme and APMA solution (MMP:APMA) was incubated for 3 h at 37 °C. The activity was conf ir med using the MMP-8 detection kit (Q uic kZ ym e® Biosciences, Leiden, Netherlands). A stock solution (90 µg/mL) of the activated MMP was prepared (used for cleavage studies on the pr ot eas e-cleavable linker (PCL; e.g. Figure 2) or the fully assemb led microparticle -PCL- t ast ant setup (sensor; e.g. Figure 3) , in MMP -8 buffer (200 mM NaCl, 50 mM Tris-H Cl, 5 mM C aC l2, 1 µM ZnCl2, 0.05 % Brij35 at pH 6.8- 7.0). A ll MMP -8 exp eriments wer e performed as follo ws. 25 µg of the sensor ( see chap ter : Peptide-coupling to beads (Sensor)) in 100 µL MMP-buffer or 1 mg of FP LC -purified and lyophilized PCL as described dissolved 2 mL M MP -buffer resulting in a final concentration of 0.5 mg/ mL substrate was used. […]
# Figure 2A , 3, 4B ). […]
# (sensor) in co mpar ison to negative controls (the negative controls for the PCL an d sensor exper i men ts were b y incubation without MMP under otherwise identical conditions). The relative d ecreas e of the PCL’s ma in peak was char act er ized by HPLC (PCL) or of the sensor’s fluorescence b y FACS (sensor) in comparison to control. […]
# T1 sequence (P22894 101-467): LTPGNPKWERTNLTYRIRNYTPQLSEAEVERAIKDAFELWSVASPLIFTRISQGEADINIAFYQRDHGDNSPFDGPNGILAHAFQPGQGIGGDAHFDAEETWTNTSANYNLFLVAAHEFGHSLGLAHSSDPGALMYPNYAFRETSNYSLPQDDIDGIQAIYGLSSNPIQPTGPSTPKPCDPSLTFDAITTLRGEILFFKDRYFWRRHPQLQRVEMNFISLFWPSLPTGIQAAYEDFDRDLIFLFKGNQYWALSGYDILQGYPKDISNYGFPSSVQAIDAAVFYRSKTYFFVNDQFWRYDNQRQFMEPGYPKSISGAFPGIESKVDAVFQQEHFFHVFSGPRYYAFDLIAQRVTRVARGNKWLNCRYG
structure (smiles),measurement,value
CC[C@H](C)[C@H](NC(=O)CNC(=O)[C@H](CCC(N)=O)NC(=O)[C@@H]1CCCN1C(=O)CNC(=O)c1cccc(C[N+](CC)(CC)CC(=O)Nc2c(C)cccc2C)c1)C(=O)N[C@@H](C)C(=O)NCC(=O)N[C@@H](CCC(N)=O)C(=O)N[C@@H](CCN=[N+]=[N-])C(=O)N[C@@H](CCC(N)=O)C(=O)O [ID #1c] (X1-GPQGIAGQ[Aha]Q-OH),Cleavage by MMP-8 compared with the PCL carboxyfluorescein conjugate (ID #1b),significantly better
